Measured values published in US10092566B2, “Composition for controlling a gut immunity and use thereof” (SEOUL NATIONAL UNIVERSITY R&DB FOUNDATION, priority 2013, dated 2018).

Assays:
DUOX [1] = assay: DUOX expression by qPCR; assay type: in vivo, Drosophila; settings: uracil 20 nM
Protocol: (§1) Fluorescent RT-PCR was conducted to quantify gene expression and double-stranded DNA dye and SYBR green (Perkin Elmer, Waltham, Mass., USA) were used. To detect target gene trascriptomes, Cecropin (Sense, 5′-ATGAACTTCTACAACATCTTCG-3′ (SEQ ID NO: 5); Antisense, 5′-GGCAGTTGCGGCGACATTGGCG-3′ (SEQ ID NO: 6)), Diptericin (Sense, 5′-GGCTTATCCGATGCCCGACG-3′ (SEQ ID NO: 7); Antisense, 5′-TCTGTAGGTGTAGGTGCTTCCC-3′ (SEQ ID NO: 8)), and DUOX (Sense, 5′-GCTGCACGCCAACCACAAGAGACT-3′ (SEQ ID NO: 9); Antisense, 5′-CACGCGCAGCAGGATGTAAGGTTT-3′ (SEQ ID NO: 10)) were used, and as a control group, Rp49 (Sense, 5′-AGATCGTGAAGAAGCGCACCAAG-3′ (SEQ ID NO: 11); Antisense, 5′-CACCAGGAACTTCTTGAATCCGG-3′ (SEQ ID NO: 12)) was used. SYBR green analysis was conducted by an ABI PRISM 7700 system (PE Applied Biosystems, Foster City, Calif., USA) according to the manufacturer's instructions. All of the samples were repeated three times and analyzed, and a detected amount of mRNA was normalized with mRNA in the control group. Normalized data was used to quantify the relative amount of mRNA according to cycling threshold analysis. Targeted gene expression was expressed as the relative amount of expression.

IMD pathway = assay: Gut IMD pathway activation (Cec expression, qPCR); assay type: in vivo, Drosophila; settings: uracil 20 nM, 4 hours
Protocol: as §1

PLCβ = PLCβ position in cell membrane (PLCβ-RFP flies); assay type: in vivo, Drosophila; settings: uracil 20 nM for 2 hours
Protocol: Genetically modified Drosophila containing PLCβ-RFP (UAS-PLCβ-RFP; Da-GAL4) were used to monitor activated PLCβ generation which is targeted in the membrane as disclosed in the previous research (Ha et al., Nat Immunol 10, pp. 949-957, 2009). A 5% sucrose solution containing 20 nM of uracil was ingested by Drosophila (5 to 6 days old) for 2 hours.

DUOX [2] = assay: In vivo ROS detection in gut epithelia (HOCl-specific R19S staining, ratio of ROS-positive guts); set-up: species or system Drosophila
From the text: R19S, a recently developed HOCl-specific rhodamine-based dye, was used in this experiment (Chen et al., Chem Commun (Camb) 47, pp. 4373-4375, 2011). R19S was purchased from Futurechem (Seoul, South Korea). […]
Furthermore, to measure the basal level of ROS in germ-free animals, Drosophila monoassociated with each bacterium (C. intestini, A. pomorum, L. plantarum, G. morbifer, G. morbifer-carA::Tn5, L. brevis, or L. brevisΔcarA) were experimented with as disclosed above. A 5% sucrose solution containing 10 μM of R19S was orally administered to the monoassociated Drosophila (13 days old) for 90 minutes.
Following the R19S ingestion, the midguts were dissected and fixed with 4% formaldehyde. The level of HOCl (ROS level) was visualized by LSM700 confocal microscopy (Carl Zeiss).
For all of the experiments, R19S-positive guts in each animal group (n=approx. 20) were measured by each independent experiment, and data was indicated by at least three repeated and independent experiments. The number of R19S-positive guts in regard to the total numbers of gut samples was indicated as the ratio of ROS-positive guts.

Question: Which results are given for `O=c1cc[nH]c(=O)[nH]1` [uracil]?
Answer: DUOX gene induction (DUOX [1]): DUOX gene induction; gut IMD pathway activation leading to AMP production (IMD pathway): unable to activate the gut IMD pathway; PLC activation (membrane localization of active PLC) (PLCβ): PLC activation; infection-induced gut ROS after coingestion of uracil with URA− strain (DUOX [2]; E. carotovora-pyrE::Tn5 plus uracil): normal level of infection-induced ROS; lowest concentration inducing gut ROS generation (DUOX [2]; dose-dependent analysis, oral ingestion, adult Drosophila): ≥ 10 pM; ROS-inducing ability / DUOX activation (DUOX [2]; nucleobases and pyrimidine analogs, 20 nM each, ingestion for 15 minutes): capable of activating DUOX; gut ROS generation (DUOX [2]; uracil 20 nM for 1.5 hours, PLCβ-DUOX signaling-dependent (absent in DUOX-RNAi, PLCβ−/−)): generation of large amounts of gut ROS; requirement of Gαq for uracil-induced ROS generation (DUOX [2]; uracil 20 nM for 1.5 hours, control vs Gαq−/− flies): required; uracil-induced ROS generation in presence of commensal bacteria in the gut (DUOX [2]; uracil 20 nM, 1.5 hours, GF flies monoassociated with C. intestini, A. pomorum or L. plantarum): could not inhibit the ROS-generating ability of uracil
